Source: PubChem BioAssay AID179 (DTP/NCI, 2004)
The source made the active and inactive calls.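 The calls were made as follows: active = compounds giving half or more protection of infected cells from virus-caused growth loss, again on retest; inactive = the rest.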

Test system: CEM cells HIV-1 protection, formazan growth assay
Assay: NCI AIDS Antiviral Assay
Settings: for IC50: measured here: growth of uninfected CEM cells
In short: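 Protection of CEM cells against HIV-1 was scored from cell growth (soluble formazan) across five concentrations, with parallel uninfected cells. Lack of protection may reflect toxicity.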

| SMILES | EC50 [µM] | IC50 [µM] | outcome |
| --- | --- | --- | --- |
| CC1(O)CSc2c(C=O)c3ccccc3n21 (stereo unspecified) | > 1070 | 67.6 |  |
| O=C(NCCOC(=O)CCCCCCCCC(=O)OCCNC(=O)NC(=O)c1cn(Cc2ccccc2)c(=O)[nH]c1=O)NC(=O)c1cn(Cc2ccccc2)c(=O)[nH]c1=O | > 43.7 | > 43.7 |  |
| O=C(O)CN1CCNCCN(CC(=O)O)CCN(CC(=O)O)CCNCC1 | > 200 | 178 |  |
| COc1ccc2cc3c4cc(OC)c(OC)cc4ccn3c2c1 | > 23.4 | 22.9 |  |
| O=C(NCCCN1CCN(CCCNC(=O)c2cnc3ccccc3n2)CC1)c1cnc2ccccc2n1 | > 10 | > 10 |  |
| CC(C)=C1C(=O)N(c2ccccc2)N(c2ccccc2)C1=O | > 200 | 79.4 |  |
| c1ccc(CN2CCC3(CC2)SSC2(CCN(Cc4ccccc4)CC2)SS3)cc1 | > 100 | 64.6 |  |
| COC1OC2=CCC3C(=O)N(c4ccccc4)C(=O)C3C2[C@H](OCc2ccccc2)C1OCc1ccccc1 (stereo partly specified) |  |  | inactive |
| COc1ccc2nc3cc([N+](=O)[O-])ccc3c(NNc3ccc([N+](=O)[O-])cc3)c2c1 | > 200 | 50.1 |  |
| O=C(O)CCSC(=O)Nc1ccc([N+](=O)[O-])cc1 |  |  | inactive |
| COc1cc2c(c(OC)c1OC)C1CCCCC1SCC2=O (stereo unspecified) | > 155 | > 155 |  |
| COc1cc(-c2cc(-c3cc(C)cc(Cl)c3O)nc3ncnc(N)c23)ccc1O | > 200 | 10.7 |  |
| CC(=O)NC1C(OCc2ccccc2)OC(CO)C(O)C1OC(C)C(=O)NC(C(=O)NC(CCC(=O)NCCCCNc1c2ccccc2nc2cccc([N+](=O)[O-])c12)C(N)=O)C(C)C (stereo unspecified) | > 100 | 1.12 |  |
| OCc1cc2c(cc1CO)OCC2 |  |  | inactive |
| Cc1ccc(C)c(N2C(=O)C(=O)C(c3nc4ccccc4o3)C(=O)C2=O)c1 |  |  | inactive |
| Cc1ccc2c(c1)C1(c3ccc(Cl)cc3)Oc3ccc(C)cc3C(c3ccc(Cl)cc3)(O2)O1 | > 75.9 | > 75.9 |  |
| Clc1ccc2sc3c(c2c1)CCNC3 |  |  | inactive |
| CN1Cc2c(N)cccc2C(c2ccccc2)C1 (stereo unspecified) |  |  | inactive |
| CN(C)c1ccc(/C=C(\C#N)c2cccc(Br)c2)cc1 | > 200 | 0.0631 |  |
| COc1cc(C2c3cc4c(cc3OC(NNc3ccccc3)C2C)OCO4)cc(OC)c1OC (stereo unspecified) | > 200 | 3.89 |  |
| N#CC(c1ccccc1)N(CCOCCOCCN(C(=O)c1cccc2ccccc12)C(C#N)c1ccccc1)C(=O)c1cccc2ccccc12 (stereo unspecified) | > 200 | 13.2 |  |
| CCCCS(=O)CCC(N)P(=O)(O)O (stereo unspecified) | > 200 | > 200 |  |

| SMILES | EC50 [µM] | IC50 [µM] | outcome |
| --- | --- | --- | --- |
| O=C(Nc1ccc(-c2cccs2)oc1=O)c1cnccn1 | > 151 | > 151 |  |
| CCCCCCc1cc2c(O)c(C(c3ccccc3)c3c(O)c4cc(CCCCCC)c(O)cc4oc3=O)c(=O)oc2cc1O | > 200 | 5.62 |  |
| CCC1(CC)c2ccccc2C(CC)(CC)[N+]1(C)C | > 200 | 85.1 |  |
| N#CC1(C#N)OC12CCS(=O)(=O)c1ccccc12 (stereo unspecified) | > 501 | 89.1 |  |
| CN=C(NCCCOC)c1ccc(NC(=O)c2ccc(C(=O)Nc3ccc(C(=NC)NCCCOC)cc3)c([N+](=O)[O-])c2)cc1 | > 200 | 19.1 |  |
| Cc1[nH]c2ccccc2c1C1CC(=O)NC1=O (stereo unspecified) |  |  | inactive |
| CC(=O)NC(CCCCNC(=O)N(CCCl)N=O)C(=O)NCc1ccccc1 (stereo unspecified) | > 603 | 132 |  |
| O=[N+]([O-])c1c[c]([Sb](=[O])([OH])[OH])ccc1Cl | > 200 | > 200 |  |
| COc1ccc(-c2cn3c([nH]c(=O)c4cc(Br)ccc43)c2C#N)cc1 | > 200 | 182 |  |
| CC(=O)OC1CC2(c3ccccc3)C(=O)c3ccccc3N2O1 (stereo unspecified) | > 115 | > 115 |  |
| CN(C)c1ccc(-c2nnc3c(c(=O)n(C)c(=O)n3C)[n+]2[O-])cc1 | > 200 | 19.1 |  |
| Cc1c(C(=O)C/C(=N/NC(=O)c2ccccc2O)C(=O)Nc2ccccc2C(C)C)[n+](=O)c2ccccc2n1[O-] | > 6.92 | > 6.92 |  |
| O=S(=O)(O)C(=Nc1cccc(Cc2ccccc2)c1)Nc1cccc(Cc2ccccc2)c1 | > 200 | 14.8 |  |
| N#Cc1cc(C#N)c(N)nc1N | > 200 | > 200 |  |
| CC(=Nc1ccc(Cl)cc1)c1ccncc1 |  |  | inactive |
| O=c1cc(CCc2ccccc2)oc2c(O)ccc(O)c12 |  |  | inactive |
| COc1ccc(C2c3c(-c4ccccc4)nn(-c4ccccc4)c3Oc3ncn4nc(CC#N)nc4c32)cc1OC (stereo unspecified) | > 200 | > 200 |  |
| CC(=O)NCCC1CN(C(=O)/C=C\I)c2ccccc21 (stereo unspecified) | > 200 | 9.33 |  |
| CN(C)C(=O)COc1ccc(Cl)cc1Cl | > 200 | > 200 |  |
| S=C1Nc2cnc3ccccc3c2SC1c1ccccc1 (stereo unspecified) | > 200 | 56.2 |  |
| Cc1ccc(-n2nc3c(c(C#N)c2=O)-c2ccccc2C3=O)cc1 |  |  | inactive |
| CC12CC(C/C1=N/O)C(C)(C)C2 (stereo unspecified) | > 1480 | > 1480 |  |

| SMILES | EC50 [µM] | IC50 [µM] | outcome |
| --- | --- | --- | --- |
| Cc1ccc2cc([N+](=O)[O-])c3ccc(C)nc3c2n1 | > 200 | 3.16 |  |
| Nc1nc(Cl)cc(NCC2(CO)CCC(O)C2)n1 (stereo unspecified) | > 200 | > 200 |  |
| Cc1ccc(S(=O)(=O)NN=C2C(C)CC(C(C)(C)C)CC2C)cc1 (stereo unspecified) | > 200 | 31.6 |  |
| COC(C(=O)CN(C)C)(c1ccccc1)c1ccccc1 | > 200 | 141 |  |
| CC1Oc2c(c(O)cc3oc(=O)cc(-c4ccccc4)c23)C(=O)C1C (stereo unspecified) |  |  | inactive |
| CCOc1ccccc1NC(=O)C(C#N)C1=C(Cl)C(=O)c2ccccc2C1=O (stereo unspecified) |  |  | inactive |
| CS(=O)(=O)NC1C(=O)c2ccccc2OC1c1ccccc1 (stereo unspecified) | > 200 | > 200 |  |
| NC(N)=N/N=C/c1c(-c2ccc(Cl)cc2)nc2sccn12 | > 200 | 3.39 |  |
| CC(=S)N(c1ccccc1)c1ccccc1 | > 200 | 158 |  |
| CC1(Br)CC2OC3(Br)C=CC(C)(O)C2(CC1=O)C3(C)C (stereo unspecified) |  |  | inactive |
| O=C1CC23CCCC2(C1)CC(=O)C3 (stereo unspecified) | > 126 | > 126 |  |
| c1ccc(-c2ccc(N=NN3CCCC3)cc2)cc1 | > 200 | 14.8 |  |
| COC(=O)CC1(O)C(C=C(C)C)C(C(=O)OC)C(=O)C(C(=O)OC)C1C(=O)OC (stereo unspecified) | > 200 | > 200 |  |
| CC1CCC2(CC1)CC(=O)N(N1CCOCC1)C(=O)C2 | > 200 | > 200 |  |
| COc1ccc2c(c1)NC(=O)C(O)(Cc1ccccc1)C2=O (stereo unspecified) | > 200 | > 200 |  |
| CCOC(=O)c1ccc(OCc2nc3cc(C(F)(F)F)ccc3nc2-c2ccccc2)cc1 | > 200 | 87.1 |  |
| O=C(CN1CCC(O)(c2ccccc2)CC1)N1CCN(/C=C/c2ccccc2)CC1 | > 200 | 58.9 |  |
| FC(F)(F)c1ccccc1C1SCc2nc3ccccc3n21 (stereo unspecified) |  |  | inactive |
| CC1=CC(=O)N(n2c(Cc3ccccc3)n[nH]c2=O)C1=O | > 200 | > 200 |  |
| CC(=O)N1C(=O)CC23c4cccc([N+](=O)[O-])c4C(=O)N2CCCN13 (stereo unspecified) | > 398 | > 398 |  |
| COC1=C(C)C(=O)c2c(c(COC(N)=O)c3n2CC(OC(C)=O)C3OC(C)=O)C1=O (stereo unspecified) | > 2 | 0.178 |  |
